US20250144020A1, “ULTRA-LONG FLOATING HYDROGEL RAFT FOR PROLONGED GASTRIC RETENTION AND APPLICATIONS REQUIRING BUOYANCY WITH CONTROLLED-RELEASE” (Nanyang Technological University, priority 2022, published 2025)
Counter-ions that a name gives are not always drawn.

How the values were obtained:
[1] = In vitro release of Ris in FaSGF with model fitting; assay type: physicochemical; conditions: not encased in raft
Experimental: This raft assembly was then tested under simulated gastric conditions using FaSGF in a shaking incubator (150 rpm) at 37° C. All experiments were carried out in triplicates. At specified time points, the release media were collected and replaced with an equal volume of fresh FaSGF. The collected samples were analyzed for the drugs using HPLC. […] Each drug form, without the raft, served as a control. To elucidate the mechanism of drug release, the release data were fitted to mathematical models.
Four different forms of the drug were used: 1. free drug; 2. commercial tablet; 3. drug encapsulated MPs; and 4. drug encapsulated FMes. […] Each drug form, without the raft, served as a control.
Receptacle cap type rafts were used for the release studies as the receptacle allows the loading of the FD, MP, and FM. […] Drug forms that were not encased in the raft served as controls.

[2] = cited from earlier work
[3] = In vitro release of MT in FaSGF with model fitting; assay type: physicochemical; conditions: 37° C., 150 rpm
Experimental: Receptacle cap type rafts were used for the release studies as the receptacle allows the loading of the FD, MP, and FM. The receptacle cap assembly also ensures that the system can be adopted for other drugs easily. This design was used to prevent the interaction of drugs with water in the hydrogel. 100 mg of free drug MT was weighed in triplicates and added to the receptacle of the raft before closing the lid to complete the assembly. Similarly, 20 mg of the MPs (prepared in Example 7) or one FM (prepared in Example 8) was weighed in replicates and added to the receptacle of the raft and closed with cap to obtain the raft containing MT in different forms. Drug forms that were not encased in the raft served as controls.
Required amounts of FD, MP, or FM were added to the receptacle of the raft, and the cap was used to close the structure to obtain FD encased in raft (FD-R), MP encased in raft (MP-R), and FM encased in raft (FM-R). This raft assembly was then tested under simulated gastric conditions using FaSGF in a shaking incubator (150 rpm) at 37° C. All experiments were carried out in triplicates. […] The collected samples were analyzed for the drugs using HPLC. For MT, acetonitrile:PBS (60:40) (PBS adjusted to pH 4.7) was used as the mobile phase at a flow rate of 0.8 ml/min and detected at 244 nm. […]

Structure (SMILES): Cc1nc2n(c(=O)c1CCN1CCC(c3noc4cc(F)ccc34)CC1)CCCC2 [Ris, Risperidone]
- time to complete dissolution, uncased [1]: 1 h
- water solubility (in words) [2]: insoluble in water

Structure (SMILES): COCCc1ccc(OCC(O)CNC(C)C)cc1 (stereo not shown) [MT, metoprolol tartrate]
- time of MT release (sustained over / dissolved completely in), in words [3]: one hour
- water solubility (in words) [2]: water-soluble
